Data published in patent US20200369674A1, “ANTI-PAIN COMPOUND AND PREPARATION METHOD THEREOF” (LUNAN PHARMACEUTICAL GROUP CORPORATION, priority 2017, published 2020).

Assays:
Format in all cases: in vivo
ICR mice [1] = assay: Hot plate test; conditions: Mus musculus, po, latency 2.0 hours after administration, hot plate 55° C., read-out: PTE %; for change in vivo at 1 mg/kg: 1 mg/kg intragastric; for change in vivo at 4 µmol/kg: 4 μmol/kg intragastric
Description: (§1) ICR mice, 18-22 g, half of them being male and the other half being female, provided by the Department of Laboratory Animals, Peking University (License No.: SCXK (Beijing) 2016-0010).
The temperature of hot plate was adjusted to 55° C., and the responses of mouse such as licking hind feet and jumping were used as the observation indexes. The time from the placement of mice on copper plate to the appearance of the above responses was defined as latency time. The latency time was measured for three times 30 minutes before administration, and the average value thereof was used as basic threshold, or baseline latency (BL). The animals with a latency time greater than 15 s and less than 5 s were removed, and the residual mice were randomly grouped, 8 animals per group.
Vehicle control group (double-distilled water) and groups for samples to be tested (the compounds and doses thereof were shown in Table 1) were set. All drugs were dissolved in […] before administration, and given by intragastric administration. The latency time was measured 2.0 hours after administration. Percentage of Pain Threshold Elevated Rate (PTE %) of compound on mice was calculated according to the following formula:
PTE %=(latency time of test group−latency time of vehicle control group)/latency time of vehicle control group×100

ICR mice [2] = assay: Acetic acid writhing test; set-up: key to Inhibition rate (%): Symbol “—” indicates that the data obtained at this dose was not significantly different from the vehicle control group; conditions: 0.6% acetic acid ip two hours after administration; for inhibition in vivo at 4 µmol/kg: Mus musculus, 2 h, read-out: Inhibition rate (%)
Description: as §1
ICR mice, half of them being male and the other half being female, were randomly grouped, 8 mice per group. Vehicle control group (double-distilled water), ibuprofen control group, and groups for samples to be tested (the compounds and doses thereof were shown in Table 2) were set. All drugs were dissolved in double-distilled water before administration, and given by intragastric administration at predetermined doses. Two hours after the administration, the mice were intraperitoneally injected with 0.6% acetic acid solution (10 ml/kg, ip), and the number of times the mice writhed (abdomen depressed, buttock raised, body elongated) was recorded within 5-20 minutes. The inhibition rate % of compound on writhing pain in mice was calculated according to the following formula.
Inhibition rate %=(number of writhing times in vehicle control group−number of writhing times in test group)/number of writhing times in vehicle control group×100

ICR mice [3] = assay: Formalin experiment; conditions: Mus musculus, po, 2 h, 2.5% formalin two hours after administration, phase II 10-60 minutes, read-out: Phase II pain inhibition rate (%); for inhibition in vivo at 1 mg/kg: 1 mg/kg intragastric; for inhibition in vivo at 4 µmol/kg: 4 μmol/kg intragastric
Description: as §1
ICR mice, half of them being male and the other half being female, were randomly grouped, 8 mice per group. Vehicle control group (double-distilled water) and groups for samples to be tested were set, in which the compounds and doses thereof were shown in Table 3. All drugs were dissolved in double-distilled water before administration, and given by intragastric administration at predetermined doses. Two hours after administration, the mice were injected with 20 ul of 2.5% formalin solution in the right hind foot, and the time (s) of licking or biting foot was recorded as an index of pain response, in which 0-5 minutes was phase I, 10-60 minutes was phase II, and the total observation time was 60 minutes. The phase II pain inhibition rate of compound in mice was calculated according to the following formula:
Inhibition rate %=(time of licking or biting foot in vehicle control group−time of licking or biting foot in test group)/time of licking or biting foot in vehicle control group×100

ICR mice [4] = assay: Xylene-induced mouse ear swelling test (Effect Example 4); set-up: key to Inhibition rate (%): Symbol “—” indicates that the data obtained at this dose was not significantly different from the vehicle control group; conditions: 50 uL xylene two hours after administration
Description: as §1
ICR mice were randomly grouped, 8 mice per group, half of them being male and the other half being female. Vehicle control group (double-distilled water) and groups for samples to be tested (the compounds and doses thereof were shown in Table 4). All drugs were dissolved in double-distilled water immediately before administration, and given by intragastric administration at predetermined doses. Two hours after administration, 50 uL of xylene was smeared evenly on the inner and outer sides of right ear of mouse. After 30 minutes, the left and right ears of mouse were cut, and circular ear pieces of the same size were punched at the same position on the left and right ears, and weighed. The ear swelling inhibition rate of compound in mice was calculated according to the formula.
Inhibition rate %=(degree of ear swelling in vehicle control group−degree of ear swelling in test group)/degree of ear swelling in vehicle control group×100

ICR mice [5] = assay: Xylene-induced ear swelling test in mice (Effect Example 6); conditions: 2 mg/kg i.g., 30 μL xylene one hour after administration
Description: (§2) ICR mice, body weight 18 g-22 g, half of them being male and the other half being female, provided by the Department of Laboratory Animals, Peking University. The animals were raised in a standard environment: temperature 23±1° C., relative humidity 55±5%, light-dark cycle 12 h/12 h, and fed with standard pellet feed.
Mice were randomly divided into 5 groups, 8 mice per group, half of them being male and the other half being female. Vehicle control group (double-distilled water, i.g.), dexamethasone control group (2 mg/kg, i.g.), compound DXL-A-22 group (1 mg/kg, i.g.), and compound DXL-A-24 group (1 mg/kg, i.g.) were set. All drugs were dissolved in double-distilled water before administration, and given by intragastric administration at 0.1 mL/10 g. One hour after administration, 30 μL of xylene was evenly smeared on the inner and outer sides of right ear of mouse to cause inflammation. After 0.5 hour, the left and right ears of mouse were cut, and circular ear pieces of the same size were punched at the same position on the left and right ears using the punch (diameter 6 mm) respectively, and weighed for the weights of the left and right ear pieces. The difference between the weight of the right ear after applying xylene and the weight of the left ear without applying xylene was used as swelling degree index (i.e., swelling degree). The swelling degree was calculated according to formula (1). The intensity of anti-inflammatory effect was expressed as inhibition rate (%), and the inhibition rate (%) was calculated according to formula (2).
Swelling degree=weight of right ear piece−weight of left ear piece (1)
Inflammation inhibition rate (%)=(ear swelling degree in vehicle control group−ear swelling degree in drug group)/ear swelling degree in vehicle control group×100% (2)

ICR mice [6] = assay: Carrageenan-induced paw swelling in mice; conditions: 0.5 mg/kg i.g.
Description: as §2
The mouse was fixed in a special holder, and both hind feet were exposed. Before the test, a line was drawn at 0.5 cm below the ankle joint of mouse with a marker, and used as a mark for measuring plantar volume. 30 minutes before administration the volume of right hind foot was measured as basic threshold. The mice were randomly divided into 5 groups, 8 mice per group, half of them being male and the other half being female. Vehicle control group (double-distilled water, i.g.), dexamethasone control group (0.5 mg/kg, i.g.), compound DXL-A-22 group (1 mg/kg, i.g.), and DXL-A-24 group (1 mg/kg, i.g.) were set. All drugs were dissolved in double-distilled water before administration, and were administered at 0.1 mL/10 g. Immediately after intragastric administration, 20 μL of 5% carrageenan saline solution was injected subcutaneously in the right hind foot of the mice, and the plantar volumes were measured at time points of 0.5 h, 1 h and 2 h after injection. The difference between the plantar volume of right foot after injection of carrageenan and the plantar volume of right foot before injection was used as swelling degree index (i.e., swelling degree). The swelling degree was calculated according to formula (3). The intensity of anti-inflammatory effect was expressed as inhibition rate (%), and the inhibition rate (%) was calculated according to formula (4).
Swelling degree=plantar volume of right foot after injection−plantar volume of right foot before injection (3)
Inflammation inhibition rate (%)=(plantar swelling degree in vehicle control group−plantar swelling degree in drug administration group)/plantar swelling degree in vehicle control group×100% (4)

[7] = Mus musculus, po, 2 h, 4 μmol/kg intragastric, read-out: Inhibition rate (%)

Br.Fc1ccc(N2CC[N+]3(CCCC3)CC2)cc1 [DXL-A-16, 8-(4-fluorophenyl)-5,8-diazaspiro[4.5]decan-5-ium bromide]
change in vivo at 1 mg/kg (ICR mice [1]): 31.4%
Inhibition rate (%) (ICR mice [2]; 1 mg/kg intragastric): —
inhibition in vivo at 1 mg/kg (ICR mice [3]): 31.4%
Inhibition rate (%) (ICR mice [4]; 1 mg/kg intragastric): —

Br.N#Cc1ccc(N2CC[N+]3(CCCC3)CC2)cc1 [DXL-A-19, 8-(4-cyanophenyl)-5,8-diazaspiro[4.5]decan-5-ium bromide]
change in vivo at 1 mg/kg (ICR mice [1]): 34.3%
Inhibition rate (%) (ICR mice [2]; 1 mg/kg intragastric): —
inhibition in vivo at 1 mg/kg (ICR mice [3]): 34.3%
Inhibition rate (%) (ICR mice [4]; 1 mg/kg intragastric): —

Br.Fc1ccc(N2CC[N+]3(CCCC3)CC2)cc1F [DXL-A-21, 8-(3,4-difluorophenyl)-5,8-diazaspiro[4.5]decan-5-ium bromide]
change in vivo at 1 mg/kg (ICR mice [1]): 36.6%
Inhibition rate (%) (ICR mice [2]; 1 mg/kg intragastric): —
inhibition in vivo at 1 mg/kg (ICR mice [3]): 36.6%
inhibition in vivo at 1 mg/kg (ICR mice [4]; Mus musculus, po, 2 h, 1 mg/kg intragastric, read-out: Inhibition rate (%)): 42.5%

Clc1ccc(N2CC[N+]3(CCCC3)CC2)cc1.[Br-] [DXL-A-23, 8-(4-chlorophenyl)-5,8-diazaspiro[4.5]decan-5-ium bromide]
change in vivo at 1 mg/kg (ICR mice [1]): 39.2%
Inhibition rate (%) (ICR mice [2]; 1 mg/kg intragastric): —
inhibition in vivo at 1 mg/kg (ICR mice [3]): 39.2%
Inhibition rate (%) (ICR mice [4]; 1 mg/kg intragastric): —

FC(F)(F)c1cc(N2CC[N+]3(CCCC3)CC2)cc(C(F)(F)F)c1 [DXL-A-27, 8-(3,5-bis(trifluoromethyl)phenyI)-5,8-diazaspiro[4.5]decan-5-ium bromide]
change in vivo at 4 µmol/kg (ICR mice [1]): 49%
Inhibition rate (%) (ICR mice [2]; 4 μmol/kg intragastric): —
inhibition in vivo at 4 µmol/kg (ICR mice [3]): 20.1%
inhibition in vivo at 4 µmol/kg (ICR mice [4]; [7]): 4.13%

O=[N+]([O-])c1cc(N2CC[N+]3(CCCC3)CC2)cc(C(F)(F)F)c1 [DXL-A-28, 8-(3-nitro-5-(trifluoromethyl)phenyI)-5,8-diazaspiro[4.5]decan-5-ium bromide]
change in vivo at 4 µmol/kg (ICR mice [1]): 36%
Inhibition rate (%) (ICR mice [2]; 4 μmol/kg intragastric): —
inhibition in vivo at 4 µmol/kg (ICR mice [3]): 13.3%
inhibition in vivo at 4 µmol/kg (ICR mice [4]; [7]): 9.27%

Cc1cc(N2CC[N+]3(CCCC3)CC2)cc([N+](=O)[O-])c1 [DXL-A-29, 8-(3-methyl-5-nitrophenyl)-5,8-diazaspiro[4.5]decan-5-ium bromide]
change in vivo at 4 µmol/kg (ICR mice [1]): 36%
inhibition in vivo at 4 µmol/kg (ICR mice [2]; 4 μmol/kg intragastric): 76%
inhibition in vivo at 4 µmol/kg (ICR mice [3]): 17.3%
inhibition in vivo at 4 µmol/kg (ICR mice [4]; [7]): 63.3%

Cc1ccc(N2CC[N+]3(CCCC3)CC2)cc1[N+](=O)[O-].[Br-] [DXL-A-30, 8-(4-methyl-3-nitrophenyl)-5,8-diazaspiro[4.5]decan-5-ium bromide]
change in vivo at 4 µmol/kg (ICR mice [1]): 21%
inhibition in vivo at 4 µmol/kg (ICR mice [2]; 4 μmol/kg intragastric): 41.8%
inhibition in vivo at 4 µmol/kg (ICR mice [3]): 16.9%
Inhibition rate (%) (ICR mice [4]; 4 μmol/kg intragastric): —

N#Cc1ccc(N2CC[N+]3(CCCC3)CC2)cc1[N+](=O)[O-].[Br-] [DXL-A-32, 8-(4-cyano-3-nitrophenyl)-5,8-diazaspiro[4.5]decan-5-ium bromide]
change in vivo at 4 µmol/kg (ICR mice [1]): 38%
Inhibition rate (%) (ICR mice [2]; 4 μmol/kg intragastric): —
inhibition in vivo at 4 µmol/kg (ICR mice [3]): 2.64%
inhibition in vivo at 4 µmol/kg (ICR mice [4]; [7]): 20.4%

C[C@@H]1C[C@H]2[C@@H]3CCC4=CC(=O)C=C[C@]4(C)[C@@]3(F)[C@@H](O)C[C@]2(C)[C@@]1(O)C(=O)CO [Dexamethasone, reference compound]
Inhibition rate (%) (ICR mice [5]): 69.28%
Swelling degree (ICR mice [5]; mean±SD): 2.93 ± 0.32 mg
0.5 h inhibition rate (%) (ICR mice [6]; 0.5 h after carrageenan injection): 69.55%
0.5 h swelling degree (μL) (ICR mice [6]; 0.5 h after carrageenan injection, mean±SD): 26.00 ± 14.21**/ μL
1 h inhibition rate (%) (ICR mice [6]; 1 h after carrageenan injection): 77.06%
1 h swelling degree (μL) (ICR mice [6]; 1 h after carrageenan injection, mean±SD): 19.88 ± 10.09**/ μL
2 h inhibition rate (%) (ICR mice [6]; 2 h after carrageenan injection): 84.64%
2 h swelling degree (μL) (ICR mice [6]; 2 h after carrageenan injection, mean±SD): 17.13 ± 11.54**/ μL
